Assay results from PubChem BioAssay (NCI).
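Here, GI50 denotes the concentration required for 50% inhibition of growth. The concentration for full growth arrest is given as TGI.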

Legend:
Experiment in all cases: NCI tumour cell line growth inhibition, 384-well format
[1] = tested on: 786-0 renal
[2] = tested on: A498 renal
[3] = tested on: A549 NSCLC
[4] = tested on: ACHN renal
[5] = tested on: BT-549 breast
[6] = tested on: CAKI-1 renal
[7] = tested on: CCRF-CEM leukemia
[8] = tested on: COLO 205 colon
[9] = tested on: DU-145 prostate
[10] = tested on: EKVX NSCLC
[11] = tested on: HCC-2998 colon
[12] = tested on: HCT-15 colon
[13] = tested on: HL-60(TB) leukemia
[14] = tested on: HOP-62 NSCLC
[15] = tested on: HOP-92 NSCLC
[16] = tested on: HS 578T breast
[17] = tested on: HT29 colon
[18] = tested on: IGROV1 ovarian
[19] = tested on: K-562 leukemia
[20] = tested on: KM12 colon
[21] = tested on: LOX IMVI melanoma
[22] = tested on: M14 melanoma
[23] = tested on: MALME-3M melanoma
[24] = tested on: MCF7 breast
[25] = tested on: MDA-MB-231 breast
[26] = tested on: MDA-MB-435 melanoma
[27] = tested on: MDA-MB-468 breast
[28] = tested on: MOLT-4 leukemia
[29] = tested on: NCI-H226 lung
[30] = tested on: NCI-H23 lung
[31] = tested on: NCI-H322M lung
[32] = tested on: NCI-H460 NSCLC
[33] = tested on: NCI-H522 lung
[34] = tested on: NCI/ADR-RES ovarian
[35] = tested on: OVCAR-3 ovarian
[36] = tested on: OVCAR-4 ovarian
[37] = tested on: OVCAR-5 ovarian
[38] = tested on: OVCAR-8 ovarian
[39] = tested on: PC-3 prostate
[40] = tested on: RPMI-8226 leukemia
[41] = tested on: RXF 393 renal
[42] = tested on: SF-268 CNS
[43] = tested on: SF-295 CNS
[44] = tested on: SF-539 CNS
[45] = tested on: SK-MEL-28 melanoma
[46] = tested on: SK-MEL-5 melanoma
[47] = tested on: SK-OV-3 ovarian
[48] = tested on: SN12C renal
[49] = tested on: SNB-19 CNS
[50] = tested on: SNB-75 CNS
[51] = tested on: SR leukemia
[52] = tested on: SW-620 colon
[53] = tested on: T-47D breast
[54] = tested on: TK-10 renal
[55] = tested on: UACC-257 melanoma
[56] = tested on: UACC-62 melanoma
[57] = tested on: UO-31 renal
[58] = tested on: HCT-116 colon
[59] = tested on: U251 glioblastoma

Cn1c(=O)c2c(ncn2CC(=O)Nc2ccc(-c3ccccc3)nn2)n(C)c1=O
GI50 [1]: > 100 µM | TGI [1]: > 100 µM | GI50 [2]: > 100 µM | TGI [2]: > 100 µM | GI50 [3]: > 100 µM | TGI [3]: > 100 µM | GI50 [4]: > 100 µM | TGI [4]: > 100 µM | GI50 [5]: > 100 µM | TGI [5]: > 100 µM | GI50 [6]: > 100 µM | TGI [6]: > 100 µM | GI50 [7]: 60.2 µM | TGI [7]: > 100 µM | GI50 [8]: > 100 µM | TGI [8]: > 100 µM | GI50 [9]: > 100 µM | TGI [9]: > 100 µM | GI50 [10]: > 100 µM | TGI [10]: > 100 µM | GI50 [11]: > 100 µM | TGI [11]: > 100 µM | GI50 [12]: > 100 µM | TGI [12]: > 100 µM | GI50 [13]: 6.01 µM | TGI [13]: > 100 µM | GI50 [14]: > 100 µM | TGI [14]: > 100 µM | GI50 [15]: > 100 µM | TGI [15]: > 100 µM | GI50 [16]: 72.9 µM | TGI [16]: > 100 µM | GI50 [17]: > 100 µM | TGI [17]: > 100 µM | GI50 [18]: > 100 µM | TGI [18]: > 100 µM | GI50 [19]: > 100 µM | TGI [19]: > 100 µM | GI50 [20]: > 100 µM | TGI [20]: > 100 µM | GI50 [21]: > 100 µM | TGI [21]: > 100 µM | GI50 [22]: > 100 µM | TGI [22]: > 100 µM | GI50 [23]: > 100 µM | TGI [23]: > 100 µM | GI50 [24]: > 100 µM | TGI [24]: > 100 µM | GI50 [25]: 70.8 µM | TGI [25]: > 100 µM | GI50 [26]: > 100 µM | TGI [26]: > 100 µM | GI50 [27]: 15.9 µM | TGI [27]: 96.4 µM | GI50 [28]: > 100 µM | TGI [28]: > 100 µM | GI50 [29]: > 100 µM | TGI [29]: > 100 µM | GI50 [30]: > 100 µM | TGI [30]: > 100 µM | GI50 [31]: > 100 µM | TGI [31]: > 100 µM | GI50 [32]: > 100 µM | TGI [32]: > 100 µM | GI50 [33]: > 100 µM | TGI [33]: > 100 µM | GI50 [34]: > 100 µM | TGI [34]: > 100 µM | GI50 [35]: > 100 µM | TGI [35]: > 100 µM | GI50 [36]: 25.8 µM | TGI [36]: > 100 µM | GI50 [37]: > 100 µM | TGI [37]: > 100 µM | GI50 [38]: > 100 µM | TGI [38]: > 100 µM | GI50 [39]: > 100 µM | TGI [39]: > 100 µM | GI50 [40]: > 100 µM | TGI [40]: > 100 µM | GI50 [41]: 27.1 µM | TGI [41]: > 100 µM | GI50 [42]: > 100 µM | TGI [42]: > 100 µM | GI50 [43]: > 100 µM | TGI [43]: > 100 µM | GI50 [44]: > 100 µM | TGI [44]: > 100 µM | GI50 [45]: > 100 µM | TGI [45]: > 100 µM | GI50 [46]: 3.44 µM | TGI [46]: > 100 µM | GI50 [47]: > 100 µM | TGI [47]: > 100 µM | GI50 [48]: > 100 µM | TGI [48]: > 100 µM | GI50 [49]: > 100 µM | TGI [49]: > 100 µM | GI50 [50]: > 100 µM | TGI [50]: > 100 µM | GI50 [51]: 21.6 µM | TGI [51]: > 100 µM | GI50 [52]: > 100 µM | TGI [52]: > 100 µM | GI50 [53]: 36.3 µM | TGI [53]: > 100 µM | GI50 [54]: > 100 µM | TGI [54]: > 100 µM | GI50 [55]: 49.8 µM | TGI [55]: > 100 µM | GI50 [56]: 74.6 µM | TGI [56]: > 100 µM | GI50 [57]: > 100 µM | TGI [57]: > 100 µM

O=C(NO)c1ccc(CN(c2cnccn2)c2cnccn2)cc1
GI50 [1]: 14.5 µM | TGI [1]: 27.8 µM | GI50 [2]: 11.9 µM | TGI [2]: 25.8 µM | GI50 [3]: 13.8 µM | TGI [3]: 27.1 µM | GI50 [4]: 11.2 µM | TGI [4]: 23.8 µM | GI50 [5]: 11.5 µM | TGI [5]: 24.1 µM | GI50 [6]: 12.4 µM | TGI [6]: 26 µM | GI50 [7]: 2.32 µM | TGI [7]: 4.28 µM | GI50 [8]: 3.36 µM | TGI [8]: 8.11 µM | GI50 [9]: 3.71 µM | TGI [9]: 13.1 µM | GI50 [10]: 7.91 µM | TGI [10]: 20.2 µM | GI50 [11]: 12 µM | TGI [11]: 24.4 µM | GI50 [58]: 3.01 µM | TGI [58]: 11.2 µM | GI50 [12]: 11.7 µM | TGI [12]: 24.3 µM | GI50 [13]: 7.18 µM | TGI [13]: 18.9 µM | GI50 [14]: 12.4 µM | TGI [14]: 25.5 µM | GI50 [15]: 11.9 µM | TGI [15]: 24.5 µM | GI50 [16]: 10.5 µM | TGI [16]: 22.4 µM | GI50 [17]: 15.6 µM | TGI [17]: 29.7 µM | GI50 [18]: 11.8 µM | TGI [18]: 24.1 µM | GI50 [19]: 7.51 µM | TGI [19]: 20.2 µM | GI50 [20]: 3.31 µM | TGI [20]: 12.3 µM | GI50 [21]: 7.46 µM | TGI [21]: 19.8 µM | GI50 [22]: 3.93 µM | TGI [22]: 14.3 µM | GI50 [23]: 3.38 µM | TGI [23]: 12.6 µM | GI50 [24]: 4.65 µM | TGI [24]: 19.4 µM | GI50 [25]: 15.7 µM | TGI [25]: 29.4 µM | GI50 [26]: 4.96 µM | TGI [26]: 15 µM | GI50 [27]: 2.49 µM | TGI [27]: 10 µM | GI50 [28]: 1.92 µM | TGI [28]: 3.52 µM | GI50 [29]: 12.4 µM | TGI [29]: 25.1 µM | GI50 [30]: 2.01 µM | TGI [30]: 3.96 µM | GI50 [31]: 9.66 µM | TGI [31]: 22.4 µM | GI50 [32]: 10.2 µM | TGI [32]: 22.1 µM | GI50 [33]: 4.84 µM | TGI [33]: 16.2 µM | GI50 [34]: 4.36 µM | TGI [34]: 15.1 µM | GI50 [35]: 3.27 µM | TGI [35]: 12.2 µM | GI50 [36]: 5.94 µM | TGI [36]: 19 µM | GI50 [37]: 11 µM | TGI [37]: 31.2 µM | GI50 [38]: 1.81 µM | TGI [38]: 3.86 µM | GI50 [39]: 7.66 µM | TGI [39]: 20.9 µM | GI50 [40]: 1.35 µM | TGI [40]: 2.81 µM | GI50 [41]: 3.83 µM | TGI [41]: 14.2 µM | GI50 [42]: 8.01 µM | TGI [42]: 20.9 µM | GI50 [43]: 2.62 µM | TGI [43]: 6.48 µM | GI50 [44]: 2.95 µM | TGI [44]: 10.6 µM | GI50 [45]: 2.93 µM | TGI [45]: 7.33 µM | GI50 [46]: 4.27 µM | TGI [46]: 12.8 µM | GI50 [47]: 12.2 µM | TGI [47]: 25.1 µM | GI50 [48]: 14.7 µM | TGI [48]: 28.1 µM | GI50 [49]: 13 µM | TGI [49]: 26.6 µM | GI50 [50]: 5.98 µM | TGI [50]: 18.2 µM | GI50 [51]: 1.77 µM | TGI [51]: 3.87 µM | GI50 [52]: 10.6 µM | TGI [52]: 22.7 µM | GI50 [53]: 5.59 µM | TGI [53]: 17.6 µM | GI50 [54]: 12.9 µM | TGI [54]: 26.4 µM | GI50 [59]: 4.7 µM | TGI [59]: 15.6 µM | GI50 [55]: 5.02 µM | TGI [55]: 17.8 µM | GI50 [57]: 13.5 µM | TGI [57]: 26.6 µM
